ChEMBL document CHEMBL4477213, “Discovery and Optimization of Quinazolinone-pyrrolopyrrolones as Potent and Orally Bioavailable Pan-Pim Kinase Inhibitors” (J Med Chem, 2016)

How the values were obtained:
[1] = Oral bioavailability in rat at 5 mg/kg; type: ADME, organism-based; conditions: in vivo
[2] = Volume of distribution at steady state in dog at 0.3 mg/kg, iv; type: ADME, organism-based, Canis lupus familiaris; conditions: in vivo, read-out: Vdss
[3] = Apparent permeability in pig LLC-PK1 cells; type: ADME, cell-based, Sus scrofa
[4] = molecular target: T1, Mitogen-activated protein kinase kinase kinase 19 (Homo sapiens) (UniProt Q56UN5); assay: Inhibition of human YSK4 (1019 to 1328 residues) expressed in mammalian system assessed as remaining enzyme activity at 1 uM by KINOMEScan assay relative to control
T1 sequence (whole entry): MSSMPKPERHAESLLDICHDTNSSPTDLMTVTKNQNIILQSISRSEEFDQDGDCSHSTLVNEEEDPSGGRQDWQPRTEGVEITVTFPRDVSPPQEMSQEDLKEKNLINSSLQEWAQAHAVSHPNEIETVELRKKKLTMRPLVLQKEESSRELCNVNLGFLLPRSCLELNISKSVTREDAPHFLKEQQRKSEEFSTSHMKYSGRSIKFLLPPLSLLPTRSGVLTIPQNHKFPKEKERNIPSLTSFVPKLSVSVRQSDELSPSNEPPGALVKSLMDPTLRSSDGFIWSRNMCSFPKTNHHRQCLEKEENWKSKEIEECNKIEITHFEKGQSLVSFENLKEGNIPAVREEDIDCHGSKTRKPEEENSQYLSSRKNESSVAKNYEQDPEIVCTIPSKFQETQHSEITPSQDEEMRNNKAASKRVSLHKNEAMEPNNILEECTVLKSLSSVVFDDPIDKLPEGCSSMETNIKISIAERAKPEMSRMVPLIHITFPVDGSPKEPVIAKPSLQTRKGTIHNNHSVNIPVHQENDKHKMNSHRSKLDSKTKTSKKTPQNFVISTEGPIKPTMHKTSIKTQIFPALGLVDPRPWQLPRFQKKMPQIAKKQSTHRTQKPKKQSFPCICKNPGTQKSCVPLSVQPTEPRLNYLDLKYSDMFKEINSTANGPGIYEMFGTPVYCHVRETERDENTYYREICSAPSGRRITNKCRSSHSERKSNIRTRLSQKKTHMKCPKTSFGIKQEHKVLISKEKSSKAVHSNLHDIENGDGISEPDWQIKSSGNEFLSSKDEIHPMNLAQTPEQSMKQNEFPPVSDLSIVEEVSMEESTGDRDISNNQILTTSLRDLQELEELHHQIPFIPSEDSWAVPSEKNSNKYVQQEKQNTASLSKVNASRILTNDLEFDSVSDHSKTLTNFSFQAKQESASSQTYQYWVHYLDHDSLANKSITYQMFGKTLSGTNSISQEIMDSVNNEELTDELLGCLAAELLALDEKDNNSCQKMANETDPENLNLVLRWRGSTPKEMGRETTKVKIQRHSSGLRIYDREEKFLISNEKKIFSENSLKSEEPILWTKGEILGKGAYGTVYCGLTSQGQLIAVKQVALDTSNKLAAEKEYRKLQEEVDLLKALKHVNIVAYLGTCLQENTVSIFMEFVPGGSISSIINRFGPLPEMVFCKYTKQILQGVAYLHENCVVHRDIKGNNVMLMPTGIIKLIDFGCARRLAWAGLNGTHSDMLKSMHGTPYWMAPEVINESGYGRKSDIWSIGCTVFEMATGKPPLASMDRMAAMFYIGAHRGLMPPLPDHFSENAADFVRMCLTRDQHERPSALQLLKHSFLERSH

KMS-12-BM [5] = assay: Antitumor activity against human KMS-12-BM cells xenografted in po dosed SCID-bg mouse assessed as tumor growth inhibition administered once daily measured twice per week; type: functional, organism-based
KMS-12-BM [6] = assay: Antitumor activity against human KMS-12-BM cells xenografted in SCID-bg mouse assessed as tumor growth inhibition at 25 mg/kg, po qd measured twice per week; type: functional; conditions: read-out: TGI
KMS-12-BM [7] = assay: Antitumor activity against human KMS-12-BM cells xenografted in SCID-bg mouse assessed as tumor growth inhibition at 50 mg/kg, po qd measured twice per week; type: functional; conditions: read-out: TGI
KMS-12-BM [8] = assay: Antitumor activity against human KMS-12-BM cells xenografted in SCID-bg mouse assessed as tumor growth inhibition at 100 mg/kg, po qd measured twice per week; type: functional; conditions: read-out: TGI
Mus musculus [9] = assay: In vivo inhibition of pan Pim in SCID-bg mouse xenografted with human KMS-12-BM cells assessed as phosphorylation of BAD peptide at Serine 112 residue at 10 mg/kg, po qd measured at 1 hr post dose relative to control; type: functional; set-up: scale not given: the % may be the effect or the level left
Mus musculus [10] = assay: In vivo inhibition of pan Pim in SCID-bg mouse xenografted with human KMS-12-BM cells assessed as phosphorylation of BAD peptide at Serine 112 residue at 100 mg/kg, po qd measured at 1 hr post dose relative to control; type: functional; set-up: scale not given: the % may be the effect or the level left
Mus musculus [11] = assay: In vivo inhibition of pan Pim in SCID-bg mouse xenografted with human KMS-12-BM cells assessed as phosphorylation of BAD peptide at Serine 112 residue at 25 mg/kg, po qd measured at 4 hrs post dose relative to control; type: functional; set-up: scale not given: the % may be the effect or the level left
Mus musculus [12] = assay: In vivo inhibition of pan Pim in SCID-bg mouse xenografted with human KMS-12-BM cells assessed as phosphorylation of BAD peptide at Serine 112 residue at 50 mg/kg, po qd measured at 4 hrs post dose relative to control; type: functional; set-up: scale not given: the % may be the effect or the level left
Mus musculus [13] = assay: In vivo inhibition of pan Pim in SCID-bg mouse xenografted with human KMS-12-BM cells assessed as phosphorylation of BAD peptide at Serine 112 residue at 10 mg/kg, po qd measured at 8 hrs post dose relative to control; type: functional; set-up: scale not given: the % may be the effect or the level left
Mus musculus [14] = assay: In vivo inhibition of pan Pim in SCID-bg mouse xenografted with human KMS-12-BM cells assessed as phosphorylation of BAD peptide at Serine 112 residue at 100 mg/kg, po qd measured at 8 hrs post dose relative to control; type: functional; set-up: scale not given: the % may be the effect or the level left
Mus musculus [15] = assay: In vivo inhibition of pan Pim in SCID-bg mouse xenografted with human KMS-12-BM cells assessed as phosphorylation of BAD peptide at Serine 112 residue at 100 mg/kg, po qd measured at 12 hrs post dose relative to control; type: functional; set-up: scale not given: the % may be the effect or the level left
Mus musculus [16] = assay: In vivo inhibition of pan Pim in SCID-bg mouse xenografted with human KMS-12-BM cells assessed as phosphorylation of BAD peptide at Serine 112 residue at 10 mg/kg, po qd measured at 24 hrs post dose relative to control; type: functional; set-up: scale not given: the % may be the effect or the level left
Mus musculus [17] = assay: In vivo inhibition of pan Pim in SCID-bg mouse xenografted with human KMS-12-BM cells assessed as phosphorylation of BAD peptide at Serine 112 residue at 50 mg/kg, po qd measured at 24 hrs post dose relative to control; type: functional; set-up: scale not given: the % may be the effect or the level left
Mus musculus [18] = assay: In vivo inhibition of pan Pim in SCID-bg mouse xenografted with human KMS-12-BM cells assessed as phosphorylation of BAD peptide at Serine 112 residue at 100 mg/kg, po qd measured at 24 hrs post dose relative to control; type: functional; set-up: scale not given: the % may be the effect or the level left

bioavailability [1]: 39%
Vd [2]: 1 L/kg
Papp [3]: 44 ×10⁻⁶ cm/s
Activity [4]: 0.4%
Compound: C[C@H]1NC(=O)c2cc(-c3cccc4c(=O)n(C)c(NC(C)(C)C)nc34)[nH]c21
TGI (KMS-12-BM [5]): Dose-dependent effect
inhibition in vivo at 25 mg/kg (KMS-12-BM [6]): 65%
inhibition in vivo at 50 mg/kg (KMS-12-BM [7]): 93%
inhibition in vivo at 100 mg/kg (KMS-12-BM [8]): 95%
Activity (Mus musculus [9]): 52%
Activity (Mus musculus [10]): 61%
Activity (Mus musculus [11]): 60%
Activity (Mus musculus [12]): 66%
Activity (Mus musculus [13]): 41%
Activity (Mus musculus [14]): 70%
Activity (Mus musculus [15]): 66%
Activity (Mus musculus [16]): 0%
Activity (Mus musculus [17]): 10%
Activity (Mus musculus [18]): 21%
